Assay results published in patent US9044485B2, “Ceftolozane antibiotic compositions” (priority 2013, dated 2015).

Legend:
[1] = test system: Enterobacteriaceae; assay: In vitro activity against Gram-positive and Gram-negative bacteria (surveillance data); format: cell-based; details: against Acinetobacter spp. and common species of Enterobacteriaceae
Method: The in vitro activity of ceftolozane and ceftolozane/tazobactam was evaluated against a broad range of Gram-positive and Gram-negative bacteria.

[2] = Intrinsic pH of ceftolozane in solution; format: physicochemical; details: in solution (2%)
[3] = test system: P. aeruginosa; assay: Minimum inhibitory concentration (MIC90); format: cell-based; details: Pseudomonas aeruginosa

Row | Structure (SMILES) | effect on in vitro activity of ceftolozane (in words) [1] | intrinsic pH [2] | MIC90 [3] [µg/mL]
1 | C[C@]1(Cn2ccnn2)[C@H](C(=O)O)N2C(=O)C[C@H]2S1(=O)=O [tazobactam, (2S,3S,5R)-3-methyl-7-oxo-3-(1H-1,2,3-triazol-1-ylmethyl)-4-thia-1-azabicyclo[3.2.0]heptane-2-carboxylic acid 4,4-dioxide] | potentiated the activity of ceftolozane | – | –
2 | Cn1c(N)c(NC(=O)NCCN)c[n+]1CC1=C(C(=O)O)N2C(=O)[C@@H](NC(=O)/C(=N\OC(C)(C)C(=O)O)c3nsc(N)n3)[C@H]2SC1 [ceftolozane, (6R,7R)-3-[(5-amino-4-{[(2-aminoethyl)carbamoyl]amino}-1-methyl-1H-pyrazol-2-ium-2-yl)methyl]-7-({(2Z)-2-(5-amino-1,2,4-thiadiazol-3-yl)-2-[(1-carboxy-1-methylethoxy)imino]acetyl}amino)-8-oxo-5-thia-1-azabicyclo[4.2.0]oct-2-ene-2-carboxylate] | – | 1.92 | ≤ 2
